# Measurements from PubChem BioAssay AID2060903 (Molecular Pharmacology Branch, DTP, NCI, 2025).
# System: 377384-186-R-J1-PDC complex spheroid viability
# Test: Anticancer human tumor 377384-186-R-J1-PDC patient-derived pancreatic carcinoma cell line growth inhibition [RAS]
# Settings: for IC50: curve of first compound; for viability, T/C: stronger effect = lower value
# Method in brief: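 Tumour cells grown as complex spheroids with HUVEC endothelial cells and mesenchymal stem cells, treated with RAS pathway inhibitor combinations. Each agent spans half-log steps from near clinical Cmax, or 10 microM where Cmax is unknown.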
# [1] = second compound 0.00316 µM, first compound 0.0316 µM
# [2] = second compound 0.00316 µM, first compound 0.1 µM
# [3] = second compound 0.00316 µM, first compound 0.316 µM
# [4] = second compound 0.00316 µM, first compound 1 µM
# [5] = second compound 0.00316 µM, first compound 3.16 µM
# [6] = second compound 0.00316 µM, first compound 10 µM
# [7] = second compound 0.01 µM, first compound 0.0316 µM
# [8] = second compound 0.01 µM, first compound 0.1 µM
# [9] = second compound 0.01 µM, first compound 0.316 µM
# [10] = second compound 0.01 µM, first compound 1 µM
# [11] = second compound 0.01 µM, first compound 3.16 µM
# [12] = second compound 0.01 µM, first compound 10 µM
# [13] = second compound 0.0316 µM, first compound 0.0316 µM
# [14] = second compound 0.0316 µM, first compound 0.1 µM
# [15] = second compound 0.0316 µM, first compound 0.316 µM
# [16] = second compound 0.0316 µM, first compound 1 µM
# [17] = second compound 0.0316 µM, first compound 3.16 µM
# [18] = second compound 0.0316 µM, first compound 10 µM
# [19] = second compound 0.1 µM, first compound 0.0316 µM
# [20] = second compound 0.1 µM, first compound 0.1 µM
# [21] = second compound 0.1 µM, first compound 0.316 µM
# [22] = second compound 0.1 µM, first compound 1 µM
# [23] = second compound 0.1 µM, first compound 3.16 µM
# [24] = second compound 0.1 µM, first compound 10 µM
# [25] = second compound 0.316 µM, first compound 0.0316 µM
# [26] = second compound 0.316 µM, first compound 0.1 µM
# [27] = second compound 0.316 µM, first compound 0.316 µM
# [28] = second compound 0.316 µM, first compound 1 µM
# [29] = second compound 0.316 µM, first compound 3.16 µM
# [30] = second compound 0.316 µM, first compound 10 µM
# [31] = second compound 1 µM, first compound 0.0316 µM
# [32] = second compound 1 µM, first compound 0.1 µM
# [33] = second compound 1 µM, first compound 0.316 µM
# [34] = second compound 1 µM, first compound 1 µM
# [35] = second compound 1 µM, first compound 3.16 µM
# [36] = second compound 1 µM, first compound 10 µM
# 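Further: spheroids exposed to compounds for seven days before readout.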
structure (smiles),measurement,setting,value
CCC(CC)c1cc(NC2CCC(N)C2)n2nccc2n1 (centres undefined) + C=CC(=O)N1CCN(c2nc(OCC3CCCN3C)nc3c(F)c(-c4nc(N)cc(C)c4C(F)(F)F)c(Cl)cc23)C(C)C1,IC50,second compound 0.00316 µM,1580 nM
same,IC50,second compound 0.01 µM,1650 nM
same,IC50,second compound 0.0316 µM,1700 nM
same,IC50,second compound 0.1 µM,1720 nM
same,IC50,second compound 0.316 µM,1720 nM
same,IC50,second compound 1 µM,1770 nM
same,"viability, T/C",[1],98%
same,"viability, T/C",[2],100%
same,"viability, T/C",[3],109%
same,"viability, T/C",[4],80.4%
same,"viability, T/C",[5],2.73%
same,"viability, T/C",[6],4.78%
same,"viability, T/C",[7],106%
same,"viability, T/C",[8],100%
same,"viability, T/C",[9],110%
same,"viability, T/C",[10],86.5%
same,"viability, T/C",[11],2.18%
same,"viability, T/C",[12],3.83%
same,"viability, T/C",[13],107%
same,"viability, T/C",[14],88.6%
same,"viability, T/C",[15],124%
same,"viability, T/C",[16],89.4%
same,"viability, T/C",[17],2.68%
same,"viability, T/C",[18],4.52%
same,"viability, T/C",[19],101%
same,"viability, T/C",[20],97.9%
same,"viability, T/C",[21],112%
same,"viability, T/C",[22],91.3%
same,"viability, T/C",[23],2.71%
same,"viability, T/C",[24],5.16%
same,"viability, T/C",[25],101%
same,"viability, T/C",[26],102%
same,"viability, T/C",[27],101%
same,"viability, T/C",[28],90.3%
same,"viability, T/C",[29],3.2%
same,"viability, T/C",[30],6.46%
same,"viability, T/C",[31],94.4%
same,"viability, T/C",[32],95.8%
same,"viability, T/C",[33],96.8%
same,"viability, T/C",[34],94.6%
same,"viability, T/C",[35],3.19%
same,"viability, T/C",[36],6.78%
Cc1nc(N2CCC3(CC2)COC(C)C3N)c(CO)nc1Sc1ccnc(N)c1Cl (centres undefined) + C=CC(=O)N1CCN(c2nc(OCC3CCCN3C)nc3c(F)c(-c4nc(N)cc(C)c4C(F)(F)F)c(Cl)cc23)C(C)C1,IC50,second compound 0.00316 µM,> 10000 nM
same,IC50,second compound 0.01 µM,> 10000 nM
same,IC50,second compound 0.0316 µM,> 10000 nM
same,IC50,second compound 0.1 µM,> 10000 nM
same,IC50,second compound 0.316 µM,> 10000 nM
same,IC50,second compound 1 µM,> 10000 nM
same,"viability, T/C",[1],94.2%
same,"viability, T/C",[2],77%
same,"viability, T/C",[3],84%
same,"viability, T/C",[4],80.4%
same,"viability, T/C",[5],70%
same,"viability, T/C",[6],67%
same,"viability, T/C",[7],90.9%
same,"viability, T/C",[8],85.9%
same,"viability, T/C",[9],81%
same,"viability, T/C",[10],74.7%
same,"viability, T/C",[11],79.1%
same,"viability, T/C",[12],77.8%
same,"viability, T/C",[13],91.1%
same,"viability, T/C",[14],80.7%
same,"viability, T/C",[15],72.4%
same,"viability, T/C",[16],80.4%
same,"viability, T/C",[17],79.2%
same,"viability, T/C",[18],78.4%
same,"viability, T/C",[19],84.4%
same,"viability, T/C",[20],82.7%
same,"viability, T/C",[21],70.7%
same,"viability, T/C",[22],76%
same,"viability, T/C",[23],80.1%
same,"viability, T/C",[24],74.6%
same,"viability, T/C",[25],91.8%
same,"viability, T/C",[26],87%
same,"viability, T/C",[27],76.5%
same,"viability, T/C",[28],79.3%
same,"viability, T/C",[29],75.7%
same,"viability, T/C",[30],69.8%
same,"viability, T/C",[31],84.1%
same,"viability, T/C",[32],91.2%
same,"viability, T/C",[33],81.7%
same,"viability, T/C",[34],73.6%
same,"viability, T/C",[35],78.4%
same,"viability, T/C",[36],79.8%
